Results reported in ChEMBL document CHEMBL1201862, “PubChem BioAssay data set” (2004).
Activity calls are given as the source filed them.

Tests used:
Cytochrome P450 3A4 = Cytochrome P450 3A4 (Homo sapiens, UniProt P08684);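 further: CYP3A4 tested as one member of a cytochrome P450 panel screen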
Protein Wnt-3a = Protein Wnt-3a (Mus musculus, UniProt P27467); assay: antagonism of Wnt3a pathway luciferase reporter – Wnt-LIGHT cells, luminescence, selectivity assay for Gli-SUFU antagonist project, dose response (AID 651570); type: functional; settings: read-out: IC50_Mean;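 further: Wnt-LIGHT reporter cells stimulated with conditioned medium from Wnt3a-producing cells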
Sequence of Protein Wnt-3a (P27467 whole entry): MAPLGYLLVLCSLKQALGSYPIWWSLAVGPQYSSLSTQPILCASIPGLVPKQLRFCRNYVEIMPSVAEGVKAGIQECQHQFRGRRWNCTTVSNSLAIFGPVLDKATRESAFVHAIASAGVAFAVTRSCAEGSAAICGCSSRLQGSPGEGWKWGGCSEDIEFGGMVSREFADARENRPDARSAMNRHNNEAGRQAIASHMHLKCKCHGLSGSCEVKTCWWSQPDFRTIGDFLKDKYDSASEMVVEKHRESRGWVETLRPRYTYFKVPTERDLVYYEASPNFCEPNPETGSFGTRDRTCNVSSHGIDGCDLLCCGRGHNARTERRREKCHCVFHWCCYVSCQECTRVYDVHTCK

[1] = viability of uninfected HEp-2 cells – cell-based, HTS, cytotoxicity control for RSV inhibitor project, dose response (AID 2410); type: functional; settings: human respiratory syncytial virus
[2] = target: T1, Tyrosyl-DNA phosphodiesterase 2 (Homo sapiens, UniProt O95551); assay: potency against TDP2 phosphodiesterase activity – biochemical, epi absorbance, IC50, dose response (AID 743297)
T1 sequence (O95551 whole entry): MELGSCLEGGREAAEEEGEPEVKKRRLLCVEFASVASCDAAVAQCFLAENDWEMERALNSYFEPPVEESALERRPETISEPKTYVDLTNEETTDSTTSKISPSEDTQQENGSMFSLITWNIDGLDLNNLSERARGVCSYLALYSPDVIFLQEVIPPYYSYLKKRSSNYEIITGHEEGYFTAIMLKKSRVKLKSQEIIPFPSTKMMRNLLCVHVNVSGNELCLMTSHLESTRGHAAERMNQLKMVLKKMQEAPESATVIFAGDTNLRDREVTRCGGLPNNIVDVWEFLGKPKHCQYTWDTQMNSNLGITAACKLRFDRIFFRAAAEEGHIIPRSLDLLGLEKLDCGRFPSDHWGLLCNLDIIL

Caspase-6 = target: T2, Caspase-6 (Homo sapiens, UniProt P55212); assay: inhibition of CASP6 peptide cleavage – biochemical, VEID-R110 fluorescence, cherry-pick, dose response (AID 720632)
T2 sequence (P55212 whole entry): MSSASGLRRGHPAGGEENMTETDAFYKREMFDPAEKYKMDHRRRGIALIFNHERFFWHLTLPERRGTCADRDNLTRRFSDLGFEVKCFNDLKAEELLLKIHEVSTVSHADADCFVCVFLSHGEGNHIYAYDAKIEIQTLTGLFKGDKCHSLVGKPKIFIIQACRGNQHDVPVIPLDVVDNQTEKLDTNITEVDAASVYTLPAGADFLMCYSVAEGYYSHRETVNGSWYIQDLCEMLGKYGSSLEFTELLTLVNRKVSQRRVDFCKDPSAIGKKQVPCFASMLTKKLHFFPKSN

[3] = target: T3, Replicative DNA helicase DnaB (Mycobacterium tuberculosis, UniProt P9WMR3); assay: DnaB intein splicing inhibitors, dose response, biochemical, cell-free fluorescence (AID 449749); type: functional
T3 sequence (P9WMR3 whole entry): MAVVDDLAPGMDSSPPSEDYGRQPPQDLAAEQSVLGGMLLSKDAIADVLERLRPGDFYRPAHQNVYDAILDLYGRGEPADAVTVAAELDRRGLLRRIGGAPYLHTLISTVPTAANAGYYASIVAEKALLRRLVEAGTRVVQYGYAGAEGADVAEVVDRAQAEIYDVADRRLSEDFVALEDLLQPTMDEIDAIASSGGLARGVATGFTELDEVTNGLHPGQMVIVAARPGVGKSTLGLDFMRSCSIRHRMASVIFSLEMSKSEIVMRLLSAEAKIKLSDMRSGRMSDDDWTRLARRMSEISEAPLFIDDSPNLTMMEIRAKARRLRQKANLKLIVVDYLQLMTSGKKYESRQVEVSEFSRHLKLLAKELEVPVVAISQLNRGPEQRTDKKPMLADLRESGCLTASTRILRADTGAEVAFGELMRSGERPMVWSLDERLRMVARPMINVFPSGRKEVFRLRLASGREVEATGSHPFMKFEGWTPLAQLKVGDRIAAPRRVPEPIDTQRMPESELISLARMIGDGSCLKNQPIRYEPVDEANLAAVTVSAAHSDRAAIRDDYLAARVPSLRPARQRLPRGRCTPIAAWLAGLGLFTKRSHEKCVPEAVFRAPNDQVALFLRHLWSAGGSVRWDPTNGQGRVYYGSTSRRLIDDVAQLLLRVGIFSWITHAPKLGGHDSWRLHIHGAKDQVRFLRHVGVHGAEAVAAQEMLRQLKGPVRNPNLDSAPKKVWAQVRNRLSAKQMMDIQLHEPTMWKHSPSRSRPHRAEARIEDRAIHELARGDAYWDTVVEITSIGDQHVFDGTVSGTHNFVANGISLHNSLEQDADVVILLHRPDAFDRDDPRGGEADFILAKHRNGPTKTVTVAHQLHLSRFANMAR

Protein RecA = target: T4, Protein RecA (Mycobacterium tuberculosis, UniProt P9WHJ3); assay: Fluorescence Cell-Free Homogeneous Dose Retest to Identify Inhibitors of RecA-Intein Splicing Activity. [Related pubchem assays (depositor defined):AID2097, AID2223, AID489010, AID492950]; type: functional
T4 sequence (P9WHJ3 whole entry): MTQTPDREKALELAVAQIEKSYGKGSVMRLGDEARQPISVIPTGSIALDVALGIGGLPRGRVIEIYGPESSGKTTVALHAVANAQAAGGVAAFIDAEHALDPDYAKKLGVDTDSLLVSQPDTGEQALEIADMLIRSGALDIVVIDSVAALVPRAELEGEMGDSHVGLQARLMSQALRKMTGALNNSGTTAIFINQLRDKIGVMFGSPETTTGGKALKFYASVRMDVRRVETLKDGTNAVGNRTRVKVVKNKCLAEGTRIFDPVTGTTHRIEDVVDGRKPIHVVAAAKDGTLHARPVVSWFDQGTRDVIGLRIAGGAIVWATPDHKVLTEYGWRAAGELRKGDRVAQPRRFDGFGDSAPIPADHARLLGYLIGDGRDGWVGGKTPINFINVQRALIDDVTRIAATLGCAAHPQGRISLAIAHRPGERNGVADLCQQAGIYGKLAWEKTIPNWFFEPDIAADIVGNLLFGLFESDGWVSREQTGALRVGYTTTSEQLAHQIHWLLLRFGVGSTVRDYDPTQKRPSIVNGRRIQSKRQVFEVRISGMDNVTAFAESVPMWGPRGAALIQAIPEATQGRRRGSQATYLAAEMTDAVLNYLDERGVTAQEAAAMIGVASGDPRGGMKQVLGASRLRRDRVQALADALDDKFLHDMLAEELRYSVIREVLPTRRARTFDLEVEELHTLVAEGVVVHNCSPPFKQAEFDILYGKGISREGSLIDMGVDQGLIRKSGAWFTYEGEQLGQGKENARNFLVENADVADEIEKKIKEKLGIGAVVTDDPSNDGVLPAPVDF

[4] = target: T5, Histone-lysine N-methyltransferase NSD2 (Homo sapiens, UniProt O96028); type: biochemical
T5 sequence (O96028 whole entry): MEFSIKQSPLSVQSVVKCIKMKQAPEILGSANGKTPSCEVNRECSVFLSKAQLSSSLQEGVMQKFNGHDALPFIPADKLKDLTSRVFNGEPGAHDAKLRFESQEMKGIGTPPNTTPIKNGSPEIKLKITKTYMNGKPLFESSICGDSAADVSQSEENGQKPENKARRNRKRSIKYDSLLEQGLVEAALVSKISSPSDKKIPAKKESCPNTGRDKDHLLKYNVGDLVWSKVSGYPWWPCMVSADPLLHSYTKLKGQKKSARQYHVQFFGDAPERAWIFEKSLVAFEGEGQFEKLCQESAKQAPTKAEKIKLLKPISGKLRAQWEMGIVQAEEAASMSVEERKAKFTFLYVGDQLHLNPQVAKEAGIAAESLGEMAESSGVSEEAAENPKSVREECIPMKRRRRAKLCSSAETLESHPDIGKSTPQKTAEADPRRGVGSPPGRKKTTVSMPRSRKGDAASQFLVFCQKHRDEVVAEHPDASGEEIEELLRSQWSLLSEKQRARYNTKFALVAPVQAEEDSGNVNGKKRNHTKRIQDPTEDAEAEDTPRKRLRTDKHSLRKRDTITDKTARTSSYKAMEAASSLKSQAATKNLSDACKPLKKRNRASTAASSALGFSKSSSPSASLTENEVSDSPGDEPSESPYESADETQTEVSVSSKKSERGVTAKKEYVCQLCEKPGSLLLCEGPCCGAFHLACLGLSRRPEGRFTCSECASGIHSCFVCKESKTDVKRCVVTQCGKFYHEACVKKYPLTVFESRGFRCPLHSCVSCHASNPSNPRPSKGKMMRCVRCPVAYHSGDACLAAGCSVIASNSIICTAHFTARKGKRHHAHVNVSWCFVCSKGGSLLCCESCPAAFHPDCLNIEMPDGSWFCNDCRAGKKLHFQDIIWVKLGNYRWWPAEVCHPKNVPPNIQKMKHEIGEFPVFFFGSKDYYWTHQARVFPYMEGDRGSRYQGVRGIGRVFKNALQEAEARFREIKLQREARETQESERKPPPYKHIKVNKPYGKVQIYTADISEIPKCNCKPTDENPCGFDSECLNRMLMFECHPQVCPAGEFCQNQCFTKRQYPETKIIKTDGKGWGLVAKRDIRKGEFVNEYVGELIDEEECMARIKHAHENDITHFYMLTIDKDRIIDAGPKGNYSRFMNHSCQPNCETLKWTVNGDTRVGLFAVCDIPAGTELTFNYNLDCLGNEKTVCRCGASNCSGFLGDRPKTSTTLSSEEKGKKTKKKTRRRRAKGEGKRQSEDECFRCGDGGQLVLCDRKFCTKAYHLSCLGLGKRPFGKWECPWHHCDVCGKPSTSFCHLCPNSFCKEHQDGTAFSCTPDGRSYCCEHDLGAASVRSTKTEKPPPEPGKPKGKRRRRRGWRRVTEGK

Nonstructural protein 1 = Nonstructural protein 1 (Influenza A virus, UniProt Q194T2); type: functional, Influenza A virus (A/California/07/2009(H1N1))
Sequence of Nonstructural protein 1 (Q194T2 whole entry): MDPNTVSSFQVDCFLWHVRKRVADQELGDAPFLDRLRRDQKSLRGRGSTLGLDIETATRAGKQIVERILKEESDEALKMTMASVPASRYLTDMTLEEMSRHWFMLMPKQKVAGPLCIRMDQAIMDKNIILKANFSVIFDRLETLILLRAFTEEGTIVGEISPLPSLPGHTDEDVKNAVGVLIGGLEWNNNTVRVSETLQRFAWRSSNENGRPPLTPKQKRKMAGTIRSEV

[5] = target: Heat shock protein HSP 90-alpha (Homo sapiens, UniProt P07900); type: functional, organism-based

Sequence of Cytochrome P450 3A4 (P08684 whole entry): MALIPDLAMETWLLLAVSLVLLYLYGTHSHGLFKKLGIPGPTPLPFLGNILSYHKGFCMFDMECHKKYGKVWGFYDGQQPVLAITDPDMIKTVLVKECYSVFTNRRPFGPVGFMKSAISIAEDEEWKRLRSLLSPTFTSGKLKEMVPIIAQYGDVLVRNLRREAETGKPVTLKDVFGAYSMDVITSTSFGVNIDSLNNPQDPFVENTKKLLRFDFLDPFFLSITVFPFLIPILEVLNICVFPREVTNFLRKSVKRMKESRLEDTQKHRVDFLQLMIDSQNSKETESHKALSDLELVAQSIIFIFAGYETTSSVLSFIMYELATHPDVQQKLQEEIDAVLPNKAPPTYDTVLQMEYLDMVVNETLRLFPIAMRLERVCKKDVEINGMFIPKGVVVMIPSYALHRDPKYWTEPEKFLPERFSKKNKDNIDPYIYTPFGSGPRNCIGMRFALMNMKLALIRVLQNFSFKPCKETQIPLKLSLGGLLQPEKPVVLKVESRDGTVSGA

COc1ccc(-c2nn(-c3ccccc3)cc2/C=N/NC(=O)c2ccc(Br)o2)cc1
AC50 (Cytochrome P450 3A4): 15.8 µM (inconclusive)
IC50 (Protein Wnt-3a): 7.01 µM (active)
CC50 [1]: 18.8 µM (active)

Cc1nnc(N/N=C/c2ccccc2O)n1N
IC50 [2]: > 128 µM (inactive)
AC50 (Caspase-6): 13.3 µM (active)
AC50 [3]: 7.65 µM (active)
EC50 (Protein RecA): 4.08 µM (active)

CCN1/C(=C/c2ccc3cc(C)cc(C)c3[n+]2CC)Sc2cc(C)ccc21
AC50 [4]: 7.93 µM (active)
IC50 (Nonstructural protein 1): 17.6 µM (active)
AC50 [5]: 2.86 µM (active)
